Our source for the EC50 and IC50 values is patent US20260242391A1 (priority 2023, published 2026).

In data set [1] the test system is HL-60. The data set is described as follows: HL-60 differentiation potency. The data set is classed as cell-based. To be noted: Homo sapiens.
A short description of data set [2]: in vitro. To be noted: human.

A value given as a limit tells only on which side of the number the result lay.

As a reminder, the EC50 is the concentration needed to bring the measured effect to its halfway point. A low value points to a more potent agent. What is called IC50 is the concentration needed to halve the response being measured. A low value points to greater potency in that assay. `C[C@H]1[C@@H](Oc2ccc(O[C@H]3CC[C@@H](C(=O)O)CC3)cc2)O[C@@H]2O[C@@]3(C)CC[C@H]4[C@H](C)CC[C@@H]1[C@@]24OO3` [Compound 243, (1R,4s)-4-(4-(((3R,5aS,6R,8aS, 9R,10S,12R, 12aR)-3,6,9-trimethyldeca-hydro-12H-3,12-epoxy[1,2]dioxepino[4,3-i]isochromen-10-yl)oxy)phenoxy) cyclohexane-1-carboxylic acid] displayed an EC50 in data set [1] of 74.2 nM. The molecule further had an IC50 in data set [2] of 0.72 µM.

Molecule `C[C@H]1[C@@H](Oc2ccc(C(=O)N3CC(C(=O)O)C3)cc2Cl)O[C@@H]2O[C@@]3(C)CC[C@H]4[C@H](C)CC[C@@H]1[C@@]24OO3` [Compound 244, 1-(3-chloro-4-(((3R,5aS,6R,8aS, 9R,10S,12R, 12aR)-3,6,9-trimethyldeca-hydro-12H-3,12-epoxy[1,2]dioxepino[4,3-i]isochromen-10-yl)oxy)benzoyl) azetidine-3-carboxylic acid] showed an EC50 in data set [1] of 101 nM. Moreover, the midpoint of inhibition in data set [2], the IC50, lay at 2.46 µM.

Consider `C[C@H]1[C@@H](Oc2ccc(Cn3cc(C(=O)O)nn3)cc2)O[C@@H]2O[C@@]3(C)CC[C@H]4[C@H](C)CC[C@@H]1[C@@]24OO3` [Compound 245, 1-(4-(((3R,5aS,6R,8aS, 9R,10S,12R, 12aR)-3,6,9-trimethyldeca-hydro-12H-3,12-epoxy[1,2]dioxepino[4,3-i]isochromen-10-yl)oxy)benzyl)-1H-1,2,3-triazole-4-carboxylic acid], for which the concentration for a half-maximal effect (EC50) in data set [1] stood at 1340 nM. Further, the IC50 in data set [2] was more than 20 µM.

`C[C@H]1[C@@H](Oc2ccc(C(=O)Nc3ccc(C(=O)O)cc3)cc2)O[C@@H]2O[C@@]3(C)CC[C@H]4[C@H](C)CC[C@@H]1[C@@]24OO3` [Compound 246, 4-(4-(((3R,5aS,6R,8aS, 9R,10S,12R, 12aR)-3,6,9-trimethyldeca-hydro-12H-3,12-epoxy[1,2]dioxepino[4,3-i]isochromen-10-yl)oxy)benzamido) benzoic acid]: in data set [1], the EC50 amounted to 15.8 nM. The molecule further registered an IC50 in data set [2] of 0.04 µM.

In data set [1], `C[C@H]1[C@@H](Oc2ccc(C(=O)N3CC[C@@H](C(=O)O)C3)cc2Cl)O[C@@H]2O[C@@]3(C)CC[C@H]4[C@H](C)CC[C@@H]1[C@@]24OO3` [Compound 247, (R)-1-(3-chloro-4-(((3R,5aS,6R,8aS, 9R,10S,12R, 12aR)-3,6,9-trimethyldeca-hydro-12H-3,12-epoxy[1,2]dioxepino[4,3-i]isochromen-10-yl)oxy)benzoyl) pyrrolidine-3-carboxylic acid] registered a half-maximal effective concentration (EC50) of 56.1 nM. In addition, the half-maximal inhibitory concentration (IC50) in data set [2] was 1.42 µM.

The molecule `CO[C@H](C)[C@H](NC(=O)c1ccc(O[C@H]2O[C@@H]3O[C@@]4(C)CC[C@H]5[C@H](C)CC[C@@H]([C@H]2C)[C@@]35OO4)cc1)C(=O)O` [Compound 248, O-methyl-N-(4-(((3R,5aS,6R,8aS, 9R,10S,12R, 12aR)-3,6,9-trimethyldeca-hydro-12H-3,12-epoxy[1,2]dioxepino[4,3-i]isochromen-10-yl)oxy)benzoyl)-L-threonine] registered an EC50 in data set [1] of 412 nM. The IC50 in data set [2] was more than 20 µM.

Take `C[C@H]1[C@@H](O[C@H]2CC[C@@H](C(=O)N[C@H](C(=O)O)C(C)(C)O)CC2)O[C@@H]2O[C@@]3(C)CC[C@H]4[C@H](C)CC[C@@H]1[C@@]24OO3` [Compound 249, (S)-3-hydroxy-3-methyl-2-((1R,4R)-4-(((3R,5aS,6R,8aS, 9R,10S,12R, 12aR)-3,6,9-trimethyldeca-hydro-12H-3,12-epoxy[1,2]dioxepino[4,3-i]isochromen-10-yl)oxy)cyclo-hexane-1-carboxamido) butanoic acid]: in data set [1], a half-maximal effect (EC50) was put at 20000 nM. Also, the IC50 in data set [2] was more than 20 µM.

`C[C@H]1[C@@H](Oc2ccc(OCCC(=O)O)cc2)O[C@@H]2O[C@@]3(C)CC[C@H]4[C@H](C)CC[C@@H]1[C@@]24OO3` [Compound 250, 3-(4-(((3R,5aS,6R,8aS, 9R,10S,12R, 12aR)-3,6,9-trimethyldeca-hydro-12H-3,12-epoxy[1,2]dioxepino[4,3-i]isochromen-10-yl)oxy)phenoxy) propanoic acid] yielded an EC50 in data set [1] of 88.2 nM. In data set [2], this molecule registered an IC50 of 17.6 µM.

Molecule `C[C@H]1[C@@H](Oc2ccc(C(=O)N[C@H](C(=O)O)C3CCC3)cc2)O[C@@H]2O[C@@]3(C)CC[C@H]4[C@H](C)CC[C@@H]1[C@@]24OO3` [Compound 251, (S)-2-cyclobutyl-2-(4-(((3R,5aS,6R,8aS, 9R,10S,12R, 12aR)-3,6,9-trimethyldeca-hydro-12H-3,12-epoxy[1,2]dioxepino[4,3-i]isochromen-10-yl)oxy)benzamido) acetic acid] came in with an EC50 in data set [1] of 98.2 nM. Besides, the IC50 in data set [2] stood at 1.52 µM.

Take `C[C@H]1[C@@H](O[C@H]2CC[C@@H](C(=O)N[C@H](C(=O)O)C3CCC3)CC2)O[C@@H]2O[C@@]3(C)CC[C@H]4[C@H](C)CC[C@@H]1[C@@]24OO3` [Compound 252, (S)-2-cyclobutyl-2-((1R,4R)-4-(((3R,5aS,6R,8aS, 9R,10S,12R, 12aR)-3,6,9-trimethyldeca-hydro-12H-3,12-epoxy[1,2]dioxepino[4,3-i]isochromen-10-yl)oxy)cyclohexane-1-carboxamido) acetic acid]: in data set [1], the EC50 was found to be 242 nM. The IC50 in data set [2] was more than 20 µM.

Regarding `C[C@H]1[C@@H](OCC23[C@H]4[C@H]5[C@@H]2[C@H]2[C@@H]3[C@@H]4C52C(=O)O)O[C@@H]2O[C@@]3(C)CC[C@H]4[C@H](C)CC[C@@H]1[C@@]24OO3` (stereo partly drawn) [Compound 253, (2S,3S,5S,6S,7S, 8S)-4-((((3R,5aS,6R,8aS, 9R,10S,12R, 12aR)-3,6,9-trimethyldeca-hydro-12H-3,12-epoxy[1,2]dioxepino[4,3-i]isochromen-10-yl)oxy)methyl) cubane-1-carboxylic acid], in data set [1], the EC50 was found to be 237 nM. Moreover, the IC50 in data set [2] is more than 20 µM.

On to `C[C@H]1[C@@H](Oc2ccc(C(=O)N[C@H](C(=O)O)C(C)(C)O)cc2)O[C@@H]2O[C@@]3(C)CC[C@H]4[C@H](C)CC[C@@H]1[C@@]24OO3` [Compound 254, (S)-3-hydroxy-3-methyl-2-(4-(((3R,5aS,6R,8aS, 9R,10S,12R, 12aR)-3,6,9-trimethyldeca-hydro-12H-3,12-epoxy[1,2]dioxepino[4,3-i]isochromen-10-yl)oxy)benzamido) butanoic acid], for which the EC50 in data set [1] turned out to be 4580 nM. In addition, the IC50 in data set [2] is more than 20 µM.

In the case of `C[C@H]1[C@@H](O[C@H]2C[C@@H](C(=O)NC34C5C6C3C3C4C5C63C(=O)O)C2)O[C@@H]2O[C@@]3(C)CC[C@H]4[C@H](C)CC[C@@H]1[C@@]24OO3` (stereo partly drawn) [Compound 255, 4-((1R,3s)-3-(((3R,5aS,6R,8aS, 9R,10S,12R, 12aR)-3,6,9-trimethyldeca-hydro-12H-3,12-epoxy[1,2]dioxepino[4,3-i]isochromen-10-yl)oxy)cyclo-butane-1-carboxamido) cubane-1-carboxylic acid], it took 2320 nM to reach a half-maximal effect in data set [1] (EC50). In data set [2], the IC50 was more than 20 µM.

With `C[C@H]1[C@@H](OC[C@H]2CC[C@@H](C(=O)N[C@@H](CC(F)(F)F)C(=O)O)CC2)O[C@@H]2O[C@@]3(C)CC[C@H]4[C@H](C)CC[C@@H]1[C@@]24OO3` [Compound 256, (S)-4,4,4-trifluro-2-((1R,4R)-4-((((3R,5aS,6R,8aS, 9R,10S,12R, 12aR)-3,6,9-trimethyldeca-hydro-12H-3,12-epoxy[1,2]dioxepino[4,3-i]isochromen-10-yl)oxy)methyl)cyclohexane-1-carboxamido) butanoic acid], in data set [1], the EC50 was 3070 nM. Further, it took 15.3 µM to reach half-maximal inhibition in data set [2] (IC50).

Take `C[C@H]1[C@@H](O[C@H]2C[C@@H](C(=O)N[C@H](C(=O)O)c3ccc(C(F)(F)F)cc3)C2)O[C@@H]2O[C@@]3(C)CC[C@H]4[C@H](C)CC[C@@H]1[C@@]24OO3` [Compound 257, (S)-2-(4-(trifluoromethyl)phenyl)-2-((1R,3R)-3-(((3R,5aS,6R,8aS, 9R,10S,12R, 12aR)-3,6,9-trimethyldeca-hydro-12H-3,12-epoxy[1,2]dioxepino[4,3-i]isochromen-10-yl)oxy)cyclo-butane-1-carboxamido) acetic acid]: in data set [1], a half-maximal effect (EC50) was put at 3210 nM. Also, the IC50 in data set [2] was 11.5 µM.

Take `C[C@H]1[C@@H](Oc2ccc(C(=O)N3[C@H](C(=O)O)C[C@@H]4C[C@@H]43)cc2)O[C@@H]2O[C@@]3(C)CC[C@H]4[C@H](C)CC[C@@H]1[C@@]24OO3` [Compound 258, (1S,3S,5S)-2-(4-(((3R,5aS,6R,8aS, 9R,10S,12R, 12aR)-3,6,9-trimethyldeca-hydro-12H-3,12-epoxy[1,2]dioxepino[4,3-i]isochromen-10-yl)oxy)benzoyl)-2-azabicyclo [3.1.0]hexane-3-carboxylic acid]: the EC50 in data set [1] is more than 20000 nM. The molecule further yielded an IC50 in data set [2] of more than 20 µM.

For `C[C@H]1[C@@H](O[C@H]2CC[C@@H](C(=O)N3CC(C(=O)O)C3)CC2)O[C@@H]2O[C@@]3(C)CC[C@H]4[C@H](C)CC[C@@H]1[C@@]24OO3` [Compound 259, 1-((1R,4s)-4-(((3R,5aS,6R,8aS, 9R,10S,12R, 12aR)-3,6,9-trimethyldeca-hydro-12H-3,12-epoxy[1,2]dioxepino[4,3-i]isochromen-10-yl)oxy)cyclo-hexane-1-carbonyl) azetidine-3-carboxylic acid], the EC50 in data set [1] amounted to 172 nM. This molecule also came in with an IC50 in data set [2] (HL-60 cells) of 10.8 µM.

The molecule `C[C@H]1[C@H](OCC23[C@H]4[C@H]5[C@@H]2[C@H]2[C@@H]3[C@@H]4C52C(=O)O)O[C@@H]2O[C@@]3(C)CC[C@H]4[C@H](C)CC[C@@H]1[C@@]24OO3` (stereo partly drawn) [Compound 260, (2R,3R,5R,6R,7R, 8R)-4-((((3R,5aS,6R,8aS, 9R,10R,12R, 12aR)-3,6,9-trimethyldeca-hydro-12H-3,12-epoxy[1,2]dioxepino[4,3-i]isochromen-10-yl)oxy)methyl) cubane-1-carboxylic acid] gave an EC50 in data set [1] of 422 nM. In data set [2], the IC50 was more than 20 µM.

The molecule `CC(C)[C@H](Oc1ccc(O[C@H]2O[C@@H]3O[C@@]4(C)CC[C@H]5[C@H](C)CC[C@@H]([C@H]2C)[C@@]35OO4)cc1)C(=O)O` [Compound 261, (S)-3-methyl-2-(4-(((3R,5aS,6R,8aS, 9R,10S,12R, 12aR)-3,6,9-trimethyldeca-hydro-12H-3,12-epoxy[1,2]dioxepino[4,3-i]isochromen-10-yl)oxy)phenoxy) butanoic acid] had an EC50 in data set [1] of less than 10 nM. Besides, the IC50 in data set [2] amounted to 0.36 µM.
